Experimental data published in patent publication US11091769B2, “Development and use of modified plants and seeds that are resistant to herbicides and environmental stress” (Texas State University, priority 2017, dated 2021).

Key:
[1] = tested on: Arabidopsis seedlings (primary root growth); test: Root growth inhibition assay; format: in vivo, Arabidopsis thaliana; details: for root growth sensitivity of PIC30-OX lines: all four PIC30-OX lines; for primary root growth sensitivity of pic30 mutants: pic30-1, pic30-2 and pic30-3, incremental concentrations; for inhibition at 0.1 µM: 100 nM picloram; for primary root growth inhibition: media containing 10 pM picloram
Protocol: For root growth inhibition assays, 4-5 day old seedlings were transferred to control media and media containing indicated concentrations of different auxins. Primary root lengths were measured after 4 days of incubation, and percentage root growth inhibition was calculated.

DR5::GFP auxin sensor = test: Auxin induced DR5::GFP expression; format: in vivo, Arabidopsis thaliana; details: pic30-3 crossed with DR5::GFP; 5 day-old seedlings; 20 hours incubation
Protocol: To test auxin induced DR5::GFP expression, 5 day-old seedlings were transferred to control media and media containing indicated concentrations of different auxins. Plates were incubated for 20 hours at 21° C. under continuous light. Confocal images were acquired after the incubation period.
Confocal images were acquired using either 20× water immersion or 60× oil immersion lenses with Fluoview™ FV1000 laser scanning confocal microscope (Olympus). While making a quantitative comparison between one or more confocal images, similar laser intensity and transmittance light were used.

[2] = tested on: Arabidopsis apical root sections (PIC30 transporter); test: In planta radioactive transport assay; parameters: species or system Arabidopsis thaliana
Protocol: In planta transport assays were performed according to a protocol described elsewhere (Ito and Gray, Plant Physiology 142, 63-74, 2006) with few modifications. 15 mm root sections (at root tip) from 9 day-old seedlings were excised and incubated in transport assay buffer (TAB, 20 mM MES-KOH, pH 5.6, 10 mM sucrose and 0.5 mM CaCl2) for 30 minutes. Root sections were then transferred to the TAB containing 1.5 nM of ^14C picloram and 10 pM of unlabeled picloram or 7.9 nM of ^3H IAA and incubated for 1-6 hours at room temperature. Following thorough rinsing with cold TAB buffer, root sections were transferred to scintillation vials containing 1 ml of scintillation liquid. Radioactivity was measured using scintillation counter (Beckman Coulter, Calif.).

Arabidopsis plants = test: Foliar picloram sensitivity test at the adult stage; format: in vivo, Arabidopsis thaliana
Protocol: For chlorate and picloram sensitivity testing at the adult stage, 7 day-old seedlings were transferred to soil (Fafard growing mix 2) and grown under continuous light for an additional 12 days. To test chlorate sensitivity, plants were then irrigated with 1 mM sodium chlorate solution on alternating days. Chlorate induced leaf bleaching were examined and imaged after 10-12 days. […] Images were acquired 14-18 days after the treatment.

[3] = tested on: PIC30pro::PIC30-GUS expression; test: PIC30-GUS expression, quantitative MUG assay; format: in vivo, Arabidopsis thaliana; details: 5 day old PIC30pro::PIC30-GUS seedlings; 25 pM picloram; indicated time intervals
Protocol: To study the effect of picloram on PIC30 expression, 5 day old PIC30pro::PIC30-GUS seedlings were treated with 25 pM picloram in liquid media. They were incubated under continuous light at 21° C. without shaking, and samples were collected at different time intervals and frozen in liquid nitrogen. PIC30-GUS expression was determined through quantitative MUG assay.
Quantification of GUS expression was performed by fluorometric MUG (4-methylumbelliferyl-beta-D-glucuronide) assay following protocol described elsewhere (Parry et al. The Plant Cell 18, […], 2006) and the fluorescence was measured using a Fluorometer (Modulus, Turner Biosystems).

[4] = tested on: Arabidopsis seedlings and plants; test: In planta chlorate sensitivity test; format: in vivo, Arabidopsis thaliana
Protocol: For chlorate sensitivity testing at the seedling stage, seeds were plated onto either control media or media containing 1-1.5 mM sodium chlorate. Plates were incubated under continuous light at 21° C. for 9 days. After the incubation, representative images were acquired using DSLR (PENTAX) camera.
For chlorate and picloram sensitivity testing at the adult stage, 7 day-old seedlings were transferred to soil (Fafard growing mix 2) and grown under continuous light for an additional 12 days. To test chlorate sensitivity, plants were then irrigated with 1 mM sodium chlorate solution on alternating days. Chlorate induced leaf bleaching were examined and imaged after 10-12 days. To test picloram sensitivity, plants were sprayed with 200 g/ha of picloram. Images were acquired 14-18 days after the treatment.

O=C(O)Cc1cccc2ccccc12 [1-NAA, 1-Naphthaleneacetic acid]
root growth sensitivity of PIC30-OX lines ([1]; 4 days incubation): wild-type sensitivity
primary root growth sensitivity of pic30 mutants ([1]; 4 days incubation): wild type sensitivity

O=C(O)Cc1c[nH]c2ccccc12 [IAA, indole-3-acetic acid]
root growth sensitivity of PIC30-OX lines ([1]; 4 days incubation): wild-type sensitivity
primary root growth sensitivity of pic30 mutants ([1]; 4 days incubation): wild type sensitivity
DR5::GFP expression in pic30-3 (DR5::GFP auxin sensor): upregulated
IAA uptake, wild type versus pic30-3 ([2]; 3H-IAA, 15 mm apical root sections): no difference

Nc1c(Cl)c(Cl)nc(C(=O)O)c1Cl [picloram]
inhibition at 0.1 µM ([1]; Arabidopsis thaliana, 96 h, PIC30-OX lines, 4 days incubation): 87 to 89%
inhibition at 10 pM ([1]; Arabidopsis thaliana, 96 h, four PIC30-OX lines (PIC30-GFP in pic30-3), 10 pM picloram, 4 days incubation): 97 to 98%
inhibition at 0.1 µM ([1]; Arabidopsis thaliana, 96 h, pic30-3, 4 days incubation): ~10%
inhibition at 0.1 µM ([1]; Arabidopsis thaliana, 96 h, wild type, 4 days incubation): ~10%
primary root growth sensitivity of pic30 mutants ([1]; 4 days incubation): highly insensitive
primary root growth inhibition ([1]; pic30-3 mutant, 4 days incubation): 46%
primary root growth sensitivity of pic30-1-OX lines ([1]; three independent homozygous pic30-1-OX lines in wild type background): insensitive
primary root growth inhibition ([1]; wild type, 4 days incubation): approximately 73%
response to foliar treatment (Arabidopsis plants; PIC30-OX adult plants, 100 g/ha): hypersensitive
response to foliar treatment (Arabidopsis plants; pic30-1, pic30-2, pic30-3 adult plants, 200 g/ha sprayed): highly insensitive
DR5::GFP expression in pic30-3 (DR5::GFP auxin sensor): not
picloram uptake in pic30-3 versus wild type root sections ([2]; pic30-3, 14C-picloram, 15 mm root sections of 9 day-old seedlings): significantly lower
picloram uptake relative to wild type roots ([2]; two PIC30-OX lines, 14C-picloram, 15 mm apical root sections): 26-30 times
effect on PIC30 gene expression [3]: did not have influence

Nc1cc(Cl)nc(C(=O)O)c1Cl [aminopyralid]
primary root growth sensitivity of pic30 mutants ([1]; 4 days incubation): insensitive
DR5::GFP expression in pic30-3 (DR5::GFP auxin sensor): not

O=C(O)COc1ccc(Cl)cc1Cl [2,4-D, 2,4-dichlorophenoxyacetic acid]
primary root growth sensitivity of pic30 mutants ([1]; 4 days incubation): wild type sensitivity
DR5::GFP expression in pic30-3 (DR5::GFP auxin sensor): upregulated

[O-][Cl+2]([O-])O [chlorate, sodium chlorate]
chlorate sensitivity ([4]; PIC30-OX lines, adult stage, irrigated with chlorate solution): wild-type sensitivity
chlorate sensitivity ([4]; all four PIC30-OX lines, seedling stage): hypersensitivity
chlorate induced cotyledon and leaf bleaching ([4]; pic30-1, seedling and adult stages): pronounced cotyledon and leaf bleaching
chlorate induced cotyledon and leaf bleaching ([4]; pic30-2, seedling and adult stages): pronounced cotyledon and leaf bleaching
chlorate induced necrosis and leaf bleaching ([4]; pic30-3, seedling and adult stages): insensitive
chlorate induced cotyledon and leaf bleaching ([4]; wild type, seedling (1-1.5 mM sodium chlorate, 9 days) and adult (1 mM irrigation) stages): pronounced cotyledon and leaf bleaching
